The record followed here is patent US20160120888A1, “ANTICANCER DRUG” (KTN BIOTEC, INC., priority 2013, published 2016).

Common to all, as to format: cell-based
Assay [1] deals with Lu-65 human lung cancer cell line. The experiment in a line: Cell viability assay (MTT), Lu-65 lung cancer cells. Conditions: human lung cancer cell (Lu65), 48 hr treatment, FIG. 4A. How it is done:
(§1) FIG. 4 is a graph showing that diDCP-LA-PI and diDCP-LA-PIe induce cell death of (A) human lung cancer cell (Lu65), (B) gastric cancer cell (MKN28), (C) breast cancer cell (MCF-7) in a concentration-dependent manner. The cells were treated with a given concentration of diDCP-LA-PI or diDCP-LA-PIe for 48 hr, and subjected to MTT assay.
Lu-65 human lung cancer cell line was purchased from Health Science Research Resources Bank (Osaka, Japan), and cultured in RPMI-1640 medium.
(§2) In all cell cultures, the cells were incubated in a medium added with 10% (v/v) heat-inactivated bovine serum, penicillin (final concentration, 100 U/ml) and streptomycin (final concentration, 0.1 mg/ml) in a humid environment under 5% CO2 and 95% air at 37° C.
(§3) The cell viability was evaluated by an established method using 3-(4,5-dimethyl-2-thiazolyl)-2,5-diphenyl-2H-tetrazolium bromide (MTT).

The subject of assay [2] is MCF-7 human breast cancer cell line. The experiment in a line: Cell viability assay (MTT), MCF-7 breast cancer cells. Conditions: breast cancer cell (MCF-7), 48 hr treatment, FIG. 4C. The method, then: as §1
MCF-7 human breast cancer cell line was obtained from RIKEN cell bank (Ibaraki, Japan) and cultured in Dulbecco's modified Eagle's medium (DMEM).
as §2, §3

For assay [3], the system named is human malignant pleural mesothelioma cell lines NCI-H28, NCI-H2052, NCI-H2452, MSTO-211H. Nature of the assay: Cell viability assay (MTT), human malignant pleural mesothelioma cell lines. Conditions: 48 hr treatment; for cell death induction (MTT intensity relative to cells free of drug treatment): FIG. 2 / FIG. 3. The method, then: FIG. 2 is a graph showing that diDCP-LA-PI and diDCP-LA-PIe induce cell death of human malignant pleural mesothelioma in a concentration-dependent manner. The cells were treated with a given concentration of diDCP-LA-PI or diDCP-LA-PIe for 48 hr, and subjected to MTT assay.
FIG. 3 is a graph showing that DO-PI and DP-PI induce the same level of cell death of human malignant pleural mesothelioma in a concentration-dependent manner. The cells were treated with a given concentration of DO-PI or DP-PI for 48 hr, and subjected to MTT assay.
NCI-H28, NCI-H2052, NCI-H2452, and MSTO-211H which are cell lines of human malignant pleural mesothelioma were used.
These cells were purchased from American Type Culture Collection (Manassas, Va., USA). The cells were cultured in Roswell Park Memorial Institute (RPMI)-1640 medium added with 0.003% (w/v) L-glutamine.
as §2, §3

Assay [4] concerns MKN28 human gastric cancer cell line. The experiment in a line: Cell viability assay (MTT), MKN28 gastric cancer cells. To be noted: 48 hr treatment, FIG. 4B. The method, then:
as §1
MKN28 human gastric cancer cell line was provided by Dr. Tatematsu (Nagoya University, Japan), and cultured in RPMI-1640 medium.
as §2, §3

Turning to “1,2-O-bis-[8-{2-(2-pentyl-cyclopropylmethyl)-cyclopropyl}-octanoyl]-sn-glycerol-3-phosphatidyl-D-inositol [diDCP-LA-PI]”, the “cell death induction (MTT intensity relative to cells free of drug treatment)” value was “induce cell death of human lung cancer, gastric cancer and breast cancer in a concentration dependent manner” in assay [1]; “induce cell death of human lung cancer, gastric cancer and breast cancer in a concentration dependent manner” in assay [2]; “induce cell death of human malignant pleural mesothelioma cells in a concentration dependent manner” in assay [3]; “induce cell death of human lung cancer, gastric cancer and breast cancer in a concentration dependent manner” in assay [4].
Regarding `CCCCCCCCCCCCCCCC(=O)OC[C@H](COP(=O)(O)O[C@@H]1[C@H](O)[C@H](O)[C@@H](O)[C@H](O)[C@H]1O)OC(=O)CCCCCCCCCCCCCCC` [DP-PI, 1,2-dipalmitoyl-sn-glycerol-3-phospho-(1′-myo-inositol)], in assay [3], the “cell death induction (MTT intensity relative to cells free of drug treatment)” value is recorded as “induce the same level of cell death of human malignant pleural mesothelioma cells in a concentration dependent manner”.
With `CCCCCCCC/C=C\CCCCCCCC(=O)OC[C@H](COP(=O)(O)OC1C(O)C(O)C(O)[C@@H](O)C1O)OC(=O)CCCCCCC/C=C\CCCCCCCC` (some centres unmarked) [DO-PI, 1,2-dioleoyl-sn-glycerol-3-phospho-(1′-myo-inositol)], the “cell death induction (MTT intensity relative to cells free of drug treatment)” value in assay [3] is recorded as “induce the same level of cell death of human malignant pleural mesothelioma cells in a concentration dependent manner”.
Consider “1,2-O-bis-[8-{2-(2-pentyl-cyclopropylmethyl)-cyclopropyl}-octanoyl]-sn-glycerol-3-phosphatidyl-L-1-inositol [diDCP-LA-PIe]”, for which the “cell death induction (MTT intensity relative to cells free of drug treatment)” value was “induce cell death of human lung cancer, gastric cancer and breast cancer in a concentration dependent manner” in assay [1]; “induce cell death of human lung cancer, gastric cancer and breast cancer in a concentration dependent manner” in assay [2]; “induce cell death of human malignant pleural mesothelioma cells in a concentration dependent manner” in assay [3]; “induce cell death of human lung cancer, gastric cancer and breast cancer in a concentration dependent manner” in assay [4]. In addition, the “effectiveness of cell death induction compared with diDCP-LA-PI” value in assay [1] is recorded as “more effective”; in assay [2], “more effective”; in assay [3] (human malignant pleural mesothelioma cells, FIG. 2) it was “more effective”; in assay [4], “more effective”.
